Assays:
[1] = target: T1, WRN [UniPro: Q14191 (WRN_HUMAN), N500-C946] (Homo sapiens (Human), UniProt Q14191); experiment: WRN ATPase assay (ADP-Glo); assay type: biochemical; conditions: WRN enzymatic activity assay
[2] = target: T1, WRN [UniPro: Q14191 (WRN_HUMAN), N500-C946]; experiment: WRN unwinding assay (FORKF DNA, fluorescence); assay type: biochemical; conditions: Table 14

T1 sequence (Q14191 500-946): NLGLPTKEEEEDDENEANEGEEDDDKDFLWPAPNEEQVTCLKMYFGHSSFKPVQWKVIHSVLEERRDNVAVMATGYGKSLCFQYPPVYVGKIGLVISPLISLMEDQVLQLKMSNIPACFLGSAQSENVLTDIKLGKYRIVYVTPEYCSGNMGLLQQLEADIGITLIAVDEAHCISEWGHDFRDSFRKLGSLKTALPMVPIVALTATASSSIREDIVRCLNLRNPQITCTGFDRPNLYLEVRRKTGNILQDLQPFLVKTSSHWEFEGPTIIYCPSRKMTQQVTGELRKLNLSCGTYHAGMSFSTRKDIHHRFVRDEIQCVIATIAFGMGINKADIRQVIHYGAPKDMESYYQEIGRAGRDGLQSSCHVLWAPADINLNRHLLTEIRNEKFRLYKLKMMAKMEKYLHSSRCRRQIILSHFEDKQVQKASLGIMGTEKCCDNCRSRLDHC

SMILES	IC50 [1] [nM]	IC50 [2] [nM]
CCc1c(N2CCN(C(=O)CNC(=O)c3ccccc3F)CC2)c(=O)n2nc(SC)nc2n1CC(=O)Nc1ccc(C(F)(F)F)cc1Cl [Example 241, N-(2-(4-(4-(2-((2-Chloro-4-(trifluoromethyl)phenyl)amino)-2-oxoethyl)-5-ethyl-2-(methylthio)-7-oxo-4,7-dihydro-[1,2,4]triazolo[1,5-a]pyrimidin-6-yl)piperazin-1-yl)-2-oxoethyl)-2-fluorobenzamide]	100 to 1000	100 to 1000
CCc1c(N2CCN(C(=O)CNC(=O)c3ccccc3F)CC2)c(=O)n2nc(N3CC(F)(F)C3)nc2n1CC(=O)Nc1ccc(C(F)(F)F)cc1Cl [Example 244, N-(2-(4-(4-(2-((2-Chloro-4-(trifluoromethyl)phenyl)amino)-2-oxoethyl)-2-(3,3-difluoroazetidin-1-yl)-5-ethyl-7-oxo-4,7-dihydro-[1,2,4]triazolo[1,5-a]pyrimidin-6-yl)piperazin-1-yl)-2-oxoethyl)-2-fluorobenzamide]	< 100	100 to 1000
CCc1c(N2CCN(C(=O)CNC(=O)c3ccccc3F)CC2)c(=O)n2nc(N3Cc4ccncc4C3)nc2n1CC(=O)Nc1ccc(C(F)(F)F)cc1Cl [Example 246, N-(2-(4-(4-(2-((2-Chloro-4-(trifluoromethyl)phenyl)amino)-2-oxoethyl)-2-(1,3-dihydro-2H-pyrrolo[3,4-c]pyridin-2-yl)-5-ethyl-7-oxo-4,7-dihydro-[1,2,4]triazolo[1,5-a]pyrimidin-6-yl)piperazin-1-yl)-2-oxoethyl)-2-fluorobenzamide]	100 to 1000	< 100
CCc1c(N2CCN(C(=O)CNC(=O)c3nccs3)CC2)c(=O)n2nc(N3CCOCC3)nc2n1CC(=O)Nc1ccc(C(F)(F)F)cc1Cl [Example 248, N-(2-(4-(4-(2-((2-Chloro-4-(trifluoromethyl)phenyl)amino)-2-oxoethyl)-5-ethyl-2-morpholino-7-oxo-4,7-dihydro-[1,2,4]triazolo[1,5-a]pyrimidin-6-yl)piperazin-1-yl)-2-oxoethyl)thiazole-2-carboxamide]	< 100	< 100
CCc1c(N2CCN(C(=O)CNC(=O)c3cc(F)cc(NC)c3)CC2)c(=O)n2nc(N3CCOCC3)nc2n1CC(=O)Nc1ccc(C(F)(F)F)cc1F [Example 253, N-(2-(4-(5-Ethyl-4-(2-((2-fluoro-4-(trifluoromethyl)phenyl)amino)-2-oxoethyl)-2-morpholino-7-oxo-4,7-dihydro-[1,2,4]triazolo[1,5-a]pyrimidin-6-yl)piperazin-1-yl)-2-oxoethyl)-3-fluoro-5-(methylamino)benzamide]	< 100	< 100
CCc1c(N2CCN(C(=O)C(=O)Nc3nccs3)CC2)c(=O)n2nc(N3CCOCC3)nc2n1CC(=O)Nc1ccc(C(F)(F)F)cc1Cl [Example 258, 2-(4-(4-(2-((2-Chloro-4-(trifluoromethyl)phenyl)amino)-2-oxoethyl)-5-ethyl-2-morpholino-7-oxo-4,7-dihydro-[1,2,4]triazolo[1,5-a]pyrimidin-6-yl)piperazin-1-yl)-2-oxo-N-(thiazol-2-yl)acetamide]	< 100	< 100
CCc1c(N2CCN(C(=O)C(=O)Nc3nccs3)CC2)c(=O)n2nc(N3Cc4ccncc4C3)nc2n1CC(=O)Nc1ccc(C(F)(F)F)cc1Cl [Example 259, 2-(4-(4-(2-((2-Chloro-4-(trifluoromethyl)phenyl)amino)-2-oxoethyl)-2-(1,3-dihydro-2H-pyrrolo[3,4-c]pyridin-2-yl)-5-ethyl-7-oxo-4,7-dihydro-[1,2,4]triazolo[1,5-a]pyrimidin-6-yl)piperazin-1-yl)-2-oxo-N-(thiazol-2-yl)acetamide]	100 to 1000	< 100

Next, values leading:

IC50 [1] [nM]	IC50 [2] [nM]	SMILES
< 100	< 100	CCc1c(N2CCN(C(=O)CNC(=O)c3ncco3)CC2)c(=O)n2nc(N3CCOCC3)nc2n1CC(=O)Nc1ccc(C(F)(F)F)cc1Cl [Example 249, N-(2-(4-(4-(2-((2-Chloro-4-(trifluoromethyl)phenyl)amino)-2-oxoethyl)-5-ethyl-2-morpholino-7-oxo-4,7-dihydro-[1,2,4]triazolo[1,5-a]pyrimidin-6-yl)piperazin-1-yl)-2-oxoethyl)oxazole-2-carboxamide]
< 100	< 100	CCc1c(N2CCN(C(=O)CNC(=O)c3cc(NC)ccc3F)CC2)c(=O)n2nc(N3CCOCC3)nc2n1CC(=O)Nc1ccc(C(F)(F)F)cc1Cl [Example 250]
< 100	< 100	CCc1c(N2CCN(C(=O)CNC(=O)c3ccc(F)c(NC)c3)CC2)c(=O)n2nc(N3CCOCC3)nc2n1CC(=O)Nc1ccc(C(F)(F)F)cc1Cl [Example 251, N-(2-(4-(4-(2-((2-Chloro-4-(trifluoromethyl)phenyl)amino)-2-oxoethyl)-5-ethyl-2-morpholino-7-oxo-4,7-dihydro-[1,2,4]triazolo[1,5-a]pyrimidin-6-yl)piperazin-1-yl)-2-oxoethyl)-4-fluoro-3-(methylamino)benzamide]
< 100	< 100	CCc1c(N2CCN(C(=O)CNC(=O)c3cccc(O)c3F)CC2)c(=O)n2nc(N3CCOCC3)nc2n1CC(=O)Nc1ccc(C(F)(F)F)cc1F [Example 252, N-(2-(4-(5-Ethyl-4-(2-((2-fluoro-4-(trifluoromethyl)phenyl)amino)-2-oxoethyl)-2-morpholino-7-oxo-4,7-dihydro-[1,2,4]triazolo[1,5-a]pyrimidin-6-yl)piperazin-1-yl)-2-oxoethyl)-2-fluoro-3-hydroxybenzamide]
< 100	< 100	CCc1c(N2CCN(C(=O)CNC(=O)c3ccccc3F)CC2)c(=O)n2nc(N3CCOCC3)nc2n1CC(=O)Nc1ccc(C(F)(F)F)cc1F [Example 254, N-(2-(4-(5-Ethyl-4-(2-((2-fluoro-4-(trifluoromethyl)phenyl)amino)-2-oxoethyl)-2-morpholino-7-oxo-4,7-dihydro-[1,2,4]triazolo[1,5-a]pyrimidin-6-yl)piperazin-1-yl)-2-oxoethyl)-2-fluorobenzamide]
< 100	< 100	CCc1c(N2CCN(C(=O)CNC(=O)c3cccc(F)c3N)CC2)c(=O)n2nc(N3CCOCC3)nc2n1CC(=O)Nc1ccc(C(F)(F)F)cc1F [Example 255, 2-Amino-N-(2-(4-(5-Ethyl-4-(2-((2-fluoro-4-(trifluoromethyl)phenyl)amino)-2-oxoethyl)-2-morpholino-7-oxo-4,7-dihydro-[1,2,4]triazolo[1,5-a]pyrimidin-6-yl)piperazin-1-yl)-2-oxoethyl)-3-fluorobenzamide]
< 100	< 100	CCc1c(N2CCN(C(=O)CNC(=O)c3ccc(F)c(NC)c3)CC2)c(=O)n2nc(N3CCOCC3)nc2n1CC(=O)Nc1ccc(C(F)(F)F)cc1F [Example 256, N-(2-(4-(5-Ethyl-4-(2-((2-fluoro-4-(trifluoromethyl)phenyl)amino)-2-oxoethyl)-2-morpholino-7-oxo-4,7-dihydro-[1,2,4]triazolo[1,5-a]pyrimidin-6-yl)piperazin-1-yl)-2-oxoethyl)-4-fluoro-3-(methylamino)benzamide]
100 to 1000	100 to 1000	CCc1c(N2CCN(C(=O)CNC(=O)c3ncco3)CC2)c(=O)n2nc(N3CCCOCC3)nc2n1CC(=O)Nc1ccc(C(F)(F)F)cc1F [Example 257, N-(2-(4-(5-Ethyl-4-(2-((2-fluoro-4-(trifluoromethyl)phenyl)amino)-2-oxoethyl)-2-(1,4-oxazepan-4-yl)-7-oxo-4,7-dihydro-[1,2,4]triazolo[1,5-a]pyrimidin-6-yl)piperazin-1-yl)-2-oxoethyl)oxazole-2-carboxamide]
